According to article PMC5155426, “Organic Redox Species in Aqueous Flow Batteries: Redox Potentials, Chemical Stability and Solubility” (Scientific Reports, 2016):
Values after ≈ are worked out from the molar mass of the structure shown. Values joined by “and” are separate entries in the source; they are usually repeats but may differ in a detail not shown here. Identical values can stand only once. “Also recorded” adds a separate entry of the source. Like-named read-outs stand apart in the source and are kept apart here.

How the values were obtained:
[1] = Aqueous solubility estimation (OECD test #105) in 1 M supporting electrolytes; conditions: for solubility compared with AQDS(2,7) and AQS(2): sulfonated AQs
Procedure: After each addition the test tube was ultrasonicated and/or shaken vigorously using a Vortex Generator for at least 10 minutes at room temperature. Then the tube was inspected visually for undissolved sample and the addition of supporting electrolyte solution continued until the sample seemed just dissolved. The volumes just before and after full dissolution are used for calculating the solubility interval (Supplementary, S4 and S5) and the solubility is estimated as the average between the two.

[2] = Cyclic voltammetry: formal redox potential, peak current ratio, electrochemical reversibility; assay type: physicochemical
Procedure: The investigated compounds were used as-purchased and without any purification. […] For each series of CVs, a freshly polished electrode was used. The CVs for soluble compounds in 1 mM concentration were recorded in a glass beaker with a customized lid in nitrogen purged solutions of three different pHs, namely pH 0 (1 M H2SO4), pH 7 (0.5 M phosphate buffer) and pH 13 (1 M NaOH). The pH of the NaOH solution is taken as 13 to account for carbonization of the solution with exposure to air. A background CV was recorded before each CV experiment to exclude background contaminations. The CVs of insoluble compounds in 1 M H2SO4, or 0.5 M phosphate buffer were recorded as follows: 6 mL of the supporting electrolyte was mixed with approximately 4 mL of acetone, and then a small amount of the quinone was added so that its concentration was around 1 mM.
Each CV was analyzed in terms of peak potentials and peak currents. Peak currents were determined by subtracting a polynomial fit of the background from the recorded current as exemplified in Supplementary, S1. A plot of the absolute values of the peak currents to the square root of the scan rate was constructed and, when reasonable, a linear fit included to evaluate the electrochemical (Nernstian) reversibility of the electrochemical reaction. The peak current Ip for reversible reactions are given by equation (1).
Where F is the Faraday constant, R the gas constant, T the temperature, n the number of electron transferred, A the area of the electrode, DOthe diffusion coefficient and CO^*the bulk concentration of the analyte and v the scan rate. The peak current ratio is expected to be close to one for reversible species. The formal redox potential (E^0’), which is the adjusted form of the standard redox potential, where effects of the medium is taken into account, is reported here as the midpoint potential between the two peak potentials in the CV[24]. All half-cell potentials in this work refer to the normal hydrogen electrode (VNHE).

[3] = Visual inspection of dissolved samples on standing (thixotropy, phase separation); assay type: physicochemical
Procedure: Dissolved samples were left to stand for 12 hours and visually inspected for thixotropy using a vortex generator. For very insoluble compounds the amount of sample was decreased to 0.01 g and the dissolution time increased up to 24 h.
In practical RFBs thixotropy is not wanted, as the redox solutions can be kept still for long times. […] Thixotropy of AQ dyes in aqueous dispersions has been described earlier, as well as some methods to overcome the problem such as addition of polyvinylpyrrolidone to the solution[43].

[4] = pKa of the central (hydro)quinone groups estimated from the Pourbaix diagram; assay type: physicochemical; conditions: aqueous media, estimated from slope change in Pourbaix diagram, Fig. 5
Procedure: Quinones generally undergo a reversible two-electron reduction/oxidation. The redox potential is strongly pH dependent, as the reaction may or may not involve two protons as illustrated in the scheme-of-squares mechanistic pathway in Fig. 3 [26]. At pH < pKa1, the reaction includes two protons and thus E^0’ decreases with 59 mV per pH unit (at 25 °C)[24]. At pKa1 < pH < pKa2 and pKa2 < pH only one and no protons are involved, whereby E^0’ decreases with 30 and 0 mV per pH unit, respectively. Generally, the reactions that include protons are slower and result in a lower electrochemical rate constant (k0) and may ultimately lead to higher charge-transfer resistance in the RFB. Thus, the choice of pH in the RFB environment strongly influences quinone electrochemical performance.
Similarly to sulfonated AQs, the positions of the hydroxyl groups affect E^0’, but in acidic only to a small extent. […] The three former all have the hydroxyl groups on positions close to the quinone groups. The difference in E^0’ for these hydroxylated AQs and others may be found in the pKa values of the central (hydro)quinone groups. Those are not trivial to measure given the insolubility at lower pH values for hydroxylated AQs, but they can be estimated from the Pourbaix diagram in Fig. 5 [24][26]. For instance, in the Pourbaix diagram of AQDS(2,7), E^0’ follows the expected −59 mv/pH unit from pH 0 to pH 7 (pKa1). Then the first (hydro)quinone group deprotonates, and the slope changes to 30 mV/pH unit until pH 10 (pKa2) and E^0’ becomes pH-independent. […] Thus, if one can predict or measure reasonable values for these pKa values, it should be possible to predict which ones will have a more negative or positive E^0’ at higher pH.

[5] = cited from earlier work; for chemical stability (in water): ref 29 (tetracyano benzoquinone), 30 (dicyano dichloro benzoquinone), 31 (tetracarboxyl para benzoquinone), 32 (duroquinone)
[6] = 1 M H2SO4 supporting electrolyte prepared from MilliQ water, aqueous buffer, thermodynamic from solid, Solubility, 1 M H2SO4, room temperature, interval just after / before full dissolution
[7] = 1 M KCl supporting electrolyte prepared from MilliQ water, saline or isotonic, thermodynamic from solid, Solubility, 1 M KCl, room temperature
[8] = pH 0 (1 M H2SO4), midpoint of CV peak potentials, about 1 mM, acetone added for insoluble compounds
[9] = pH 7 (0.5 M phosphate buffer), midpoint of CV peak potentials
[10] = pH 13 (1 M NaOH), midpoint of CV peak potentials
[11] = 1 M KOH supporting electrolyte prepared from MilliQ water, aqueous buffer, thermodynamic from solid, Solubility, 1 M KOH, room temperature

O=C1c2ccccc2C(=O)c2c1ccc(O)c2O [AQDH(1,2), 1,2-dihydroxy-9,10-anthraquinone]
solubility [1, 6]: < 10 mM | solubility [1, 7]: < 10 mM | Peak current ratio ([2]; pH 0): 0.73(7) | formal redox potential E0' [2, 8]: 0.005(4) VNHE | Peak current ratio ([2]; pH 7): 0.5(1) | Electrochemical reversibility ([2]; pH 13): Quasireversible | Peak current ratio ([2]; pH 13): 1.2(1) | Comment: behaviour of the solution upon standing ([3]; in KOH (1 M)): T hixotropic; also recorded: thixotropy was observed

O=C1c2ccccc2C(=O)c2c(O)ccc(O)c21 [AQDH(1,4), 1,4-dihydroxy-9,10-anthraquinone]
solubility [1, 6]: < 10 mM | solubility [1, 7]: < 10 mM | Peak current ratio ([2]; pH 0): 0.6(1) | Peak current ratio ([2]; pH 7): 0.4(2) | Electrochemical reversibility ([2]; pH 13): Reversible | Peak current ratio ([2]; pH 13): 1.05(3) | Comment: behaviour of the solution upon standing ([3]; in KOH (1 M)): T hixotropic; also recorded: thixotropy was observed

O=C1c2cccc(O)c2C(=O)c2c(O)cccc21 [AQDH(1,8), 1,8-dihydroxy-9,10-anthraquinone]
pKa ([4]; read-out: pKa1 of the (hydro)quinone groups): ~4 | pKa ([4]; read-out: pKa2 of the (hydro)quinone groups): > 13 | Electrochemical reversibility ([2]; pH 13): Reversible

O=C1c2cccc(O)c2C(=O)c2c(O)cc(CO)cc21 [AQDH(1,8)MH, 1,8-dihydroxy-3-(hydroxymethyl)-9,10-anthraquinone]
solubility [1, 6]: < 10 mM | solubility [1, 7]: < 10 mM | Peak current ratio ([2]; pH 0): 0.58(4) | Peak current ratio ([2]; pH 7): 0.51(4) | Electrochemical reversibility ([2]; pH 13): Reversible | Peak current ratio ([2]; pH 13): 1.03(1) | Comment: behaviour of the solution upon standing ([3]; in KOH (1 M)): thixotropy was observed | Comment: behaviour of the solution upon standing ([3]; in KOH (1 M), listed as AQDG(1,8)MH): T hixotropic behavior

O=C(O)c1cc(O)c2c(c1)C(=O)c1cccc(O)c1C2=O [AQDH(4,5)CA, 4,5-dihydroxy-9,10-anthraquinone-2-carboxylic acid]
solubility [1, 6]: < 10 mM | solubility [1, 7]: < 10 mM | Peak current ratio ([2]; pH 0): 0.39(6) | formal redox potential E0' [2, 8]: 0.041(9) VNHE | Electrochemical reversibility ([2]; pH 7): Quasireversible | Peak current ratio ([2]; pH 7): 0.69(8) | formal redox potential E0' [2, 9]: -0.267(1) VNHE | Electrochemical reversibility ([2]; pH 13): Reversible | Peak current ratio ([2]; pH 13): 1.23(7) | formal redox potential E0' [2, 10]: around −0.53 VNHE | formal redox potential E0' ([2]; pH 13 (1 M NaOH), midpoint of CV peak potentials, listed as AQDH(4,5)C A): -0.546(2) VNHE | Comment: behaviour of the solution upon standing ([3]; in KOH (1 M)): thixotropy was observed | Comment: behaviour of the solution upon standing ([3]; in KOH (1 M), listed as AQDH(4,5)C A): T hixotr opic behavior

O=C1c2cccc(S(=O)(=O)[O-])c2C(=O)c2cccc(S(=O)(=O)[O-])c21.[Na+].[Na+] [AQDS(1,5), 9,10-anthraquinone-1,5-disulfonate disodium]
solubility [1, 11]: < 10 mM | solubility compared with AQDS(2,7) and AQS(2) [1]: more than ten times lower solubility | Electrochemical reversibility ([2]; pH 0): Quasireversible | Peak current ratio ([2]; pH 0): 1.7(1) | formal redox potential E0' [2, 8]: −0.03 VNHE | Electrochemical reversibility ([2]; pH 7): Quasireversible | Peak current ratio ([2]; pH 7): 0.49(3) | Electrochemical reversibility ([2]; pH 13): Reversible | Peak current ratio ([2]; pH 13): 1.17(4) | Comment: behaviour of the solution upon standing ([3]; electrolyte not stated): Phase separation

O=C1c2cccc(S(=O)(=O)[O-])c2C(=O)c2c1cccc2S(=O)(=O)[O-].[K+].[K+] [AQDS(1,8), 9,10-anthraquinone-1,8-disulfonate dipotassium]
solubility compared with AQDS(2,7) and AQS(2) [1]: more than ten times lower solubility | Electrochemical reversibility ([2]; pH 0): Quasireversible | Peak current ratio ([2]; pH 0): 1.04(7) | formal redox potential E0' [2, 8]: 0.03 VNHE | formal redox potential E0' ([2]; pH 0 (1 M H2SO4); midpoint of CV peak potentials; about 1 mM; acetone added for insoluble compounds; 8)): 0.027(4) VNHE | Electrochemical reversibility ([2]; pH 7): Quasireversible | Peak current ratio ([2]; pH 7): 0.4(1) | Electrochemical reversibility ([2]; pH 13): Reversible | Peak current ratio ([2]; pH 13): 1.0(3) | formal redox potential E0' [2, 10]: -0.464(4) VNHE | Comment: behaviour of the solution upon standing ([3]; electrolyte not stated): Phase separation

O=C1c2ccc(S(=O)(=O)O)cc2C(=O)c2ccc(S(=O)(=O)O)cc21 [AQDS(2,6), AQ-2,6-disulfonate]
E0' ([5]; pH 0): ~0.166 VNHE

O=C1c2ccccc2C(=O)c2cc(S(=O)(=O)O)ccc21 [AQS(2), 9,10-anthraquinone-2-sulfonate sodium]
Peak current ratio ([2]; pH 0): 1.0(1) | formal redox potential E0' [2, 8]: 0.163(3) VNHE and 0.163 VNHE | Peak current ratio ([2]; pH 7): 0.88(1) | Peak current ratio ([2]; pH 13): 1.2(2) | formal redox potential E0' [2, 10]: -0.334(3) VNHE | Electrochemical reversibility ([2]; pH not specified): Reversible | Comment: behaviour of the solution upon standing ([3]; electrolyte not stated): Phase separation

O=C1c2ccccc2C(=O)c2c1cc(S(=O)(=O)O)c(O)c2O [AQS(2)DH, 3,4-dihydroxy-9,10-anthraquinone-2-sulfonate sodium]
solubility ([1]; 1 M H2SO4, room temperature, interval just after / before full dissolution): barely soluble | solubility [1, 7]: < 10 mM | Peak current ratio ([2]; pH 0): 0.9(1) | Peak current ratio ([2]; pH 7): 0.85(6) | Peak current ratio ([2]; pH 13): 1.1(1) | Electrochemical reversibility ([2]; pH not specified): Quasie versib le | Comment: behaviour of the solution upon standing ([3]; in KOH (1 M)): T hixotropic behavior; also recorded: thixotropy was observed

O=C(O)c1cnccn1 [Pyrazine-2-carboxylic acid]
solubility [1, 6]: 70 mM (≈ 8690 µg/mL) | solubility [1, 7]: 80 mM (≈ 9930 µg/mL) | solubility [1, 11]: 900 mM (≈ 112000 µg/mL) | formal redox potential E0' [2, 8]: -0.013(3) VNHE | formal redox potential E0' [2, 9]: Unstable | formal redox potential E0' [2, 10]: Unstable

N#CC1=C(C#N)C(=O)C(Cl)=C(Cl)C1=O [dicyano dichloro benzoquinone]
E0' [5]: 0.9 VNHE | chemical stability (in water) [5]: readily reacts with water

CC1=C(C)C(=O)C(C)=C(C)C1=O [duroquinone]
potential ([5]; aqueous (acidic and neutral) solutions): 0.5 VNHE | chemical stability (in water) [5]: electrochemically reversible and chemically stable

O=C(O)C1=C(C(=O)O)C(=O)C(C(=O)O)=C(C(=O)O)C1=O [tetracarboxyl para benzoquinone]
calculated standard potential [5]: > 1 VNHE | chemical stability (in water) [5]: decomposes after synthesis

N#CC1=C(C#N)C(=O)C(C#N)=C(C#N)C1=O [tetracyano benzoquinone]
E0' estimated higher than that of dicyano dichloro benzoquinone [5]: 0.3 V | chemical stability (in water) [5]: Chemical instability in water

hexahydroxy anthraquinone
experimentally obtained E0' ([5]; pH 13): about −0.7 VNHE
